Values after ≈ are worked out from the molar mass of the structure shown.
What was measured:
Format in all cases: cell-based
[1] = system: Akkermansia muciniphila ATCC BAA-835; assay: Utilization of carbohydrates, API50CH kit (type strain)
Description: (§1) In order to examine the utilization of carbohydrates by the isolated Akkermansia muciniphila strain of the present invention, the strain was cultured using an API50CH kit (Biomerieux, France), and then whether the strain would grow using each carbohydrate was compared with the type strain (ATCC BAA-835).

[2] = system: Akkermansia muciniphila EB-AMDK27 strain; assay: Utilization of carbohydrates, API50CH kit (isolated strain)
Description: as §1

[3] = system: Akkermansia muciniphila EB-AMDK27 strain; assay: Antimicrobial susceptibility, MIC by broth microdilution (CLSI); conditions: EBAMDK27STRAIN, read-out: MIC, Test strain EB-AMDK27
[4] = system: Bacteroides thetiotaomicron ATCC 29741; assay: Antimicrobial susceptibility, MIC by broth microdilution (CLSI), QC strain; set-up: MIC, QC ATCC 29741: unit not given beside the values; conditions: for MIC: Bacteroides, ATCC29741, read-out: MIC, QC ATCC 29741

Row | Compound | growth using each carbohydrate, ATCC BAA-835 [1] | growth using each carbohydrate, EB-AMDK27 [2] | MIC [3] [µg/mL] | MIC [4] [µg/mL] | MIC, QC ATCC 29741 ([4]; broth microdilution)
1 | N#C[C@H](O[C@@H]1O[C@H](CO[C@@H]2O[C@H](CO)[C@@H](O)[C@H](O)[C@H]2O)[C@@H](O)[C@H](O)[C@H]1O)c1ccccc1 [Amygdaline] | − | − |  |  | 
2 | OC[C@H]1O[C@@H](Oc2ccc(O)cc2)[C@H](O)[C@@H](O)[C@@H]1O [Arbutine] | − | − |  |  | 
3 | O=C(N[C@H](CO)[C@H](O)c1ccc([N+](=O)[O-])cc1)C(Cl)Cl [CHL, Chloramphenicol] |  |  | 4 (≈ 12.4 µM) | 8 (≈ 24.8 µM) | 
4 | CCC[C@@H]1C[C@@H](C(=O)N[C@@H]([C@H]2O[C@H](SC)[C@H](O)[C@@H](O)[C@H]2O)[C@H](C)Cl)N(C)C1 [CLI, Clindamycin] |  |  | ≤ 0.125 |  | 
5 | CO/N=C(\C(=O)N[C@@H]1C(=O)N2C(C(=O)O)=CCS[C@H]12)c1csc(N)n1 [CTZ, Ceftizoxime] |  |  | 2 (≈ 5.22 µM) | 16 (≈ 41.7 µM) | 
6 | OC[C@@H](O)C(O)[C@H](O)CO [D-Arabitol] | − | − |  |  | 
7 | OC[C@H]1O[C@@H](O[C@H]2[C@H](O)[C@@H](O)[C@H](O)O[C@@H]2CO)[C@H](O)[C@@H](O)[C@@H]1O [D-Cellobiose] | − | − |  |  | 
8 | OC[C@H]1O[C@H](O[C@H]2[C@H](O)[C@@H](O)[C@H](O)O[C@@H]2CO)[C@H](O)[C@@H](O)[C@@H]1O [D-Maltose] | − | − |  |  | 
9 | OC[C@H]1O[C@@](CO)(O[C@H]2O[C@H](CO)[C@@H](O)[C@H](O)[C@H]2O)[C@@H](O[C@H]2O[C@H](CO)[C@@H](O)[C@H](O)[C@H]2O)[C@@H]1O [D-Melezitose] | − | − |  |  | 
10 | OC[C@H]1O[C@H](OCC2O[C@@H](O)[C@H](O)[C@@H](O)[C@@H]2O)[C@H](O)[C@@H](O)[C@H]1O (stereo partly drawn) [D-Melibiose] | − | − |  |  | 
11 | OC[C@H]1O[C@H](OC[C@H]2O[C@H](O[C@]3(CO)O[C@H](CO)[C@@H](O)[C@@H]3O)[C@H](O)[C@@H](O)[C@@H]2O)[C@H](O)[C@@H](O)[C@H]1O [D-Raffinose] | − | − |  |  | 
12 | OC[C@H]1O[C@@](CO)(O[C@H]2O[C@H](CO)[C@@H](O)[C@H](O)[C@H]2O)[C@@H](O)[C@@H]1O [D-Saccharose (sucrose), D-Saccharose] | − | − |  |  | 
13 | OC[C@H]1O[C@H](O[C@H]2O[C@H](CO)[C@@H](O)[C@H](O)[C@H]2O)[C@H](O)[C@@H](O)[C@@H]1O [D-Trehalose] | − | − |  |  | 
14 | OC[C@@H](O)[C@H](O)[C@H](O)[C@@H](O)CO [Dulcitol] | − | − |  |  | 
15 | O=c1ccc2cc(O[C@@H]3O[C@H](CO)[C@@H](O)[C@H](O)[C@H]3O)c(O)cc2o1 [Esculine] | − | − |  |  | 
16 | CCN1C[C@]2(COC(=O)c3ccccc3N)CC[C@H](OC)[C@]34C5C[C@@H]6[C@@H](OC)C[C@@](O)(C5[C@H]6OC)[C@@](O)(C13)[C@@H](OC)C24 (some centres unmarked) [Inuline] | − | − |  |  | 
17 | OC[C@H](O)C(O)[C@@H](O)CO [L-Arabitol] | − | − |  |  | 
18 | C[C@@H](O)[C@H]1C(=O)N2C(C(=O)O)=C(S[C@@H]3CN[C@H](C(=O)N(C)C)C3)[C@H](C)[C@H]12 [MEM, Meropenem] |  |  | 0.5 (≈ 1.3 µM) | 0.5 (≈ 1.3 µM) | 
19 | Cc1ncc([N+](=O)[O-])n1CCO [MTZ, Metronidazole] |  |  | 0.25 (≈ 1.46 µM) | 2 (≈ 11.7 µM) | 
20 | COc1c(N2C[C@@H]3CCCN[C@@H]3C2)c(F)cc2c(=O)c(C(=O)O)cn(C3CC3)c12 [MXF, Moxifloxacin] |  |  | > 32 | 8 (≈ 19.9 µM) | 
21 | CO[C@H]1O[C@H](CO)[C@@H](O)[C@H](O)[C@H]1O [Methyl-α D-glucopyranoside] | − | − |  |  | 
22 | CO[C@H]1O[C@H](CO)[C@@H](O)[C@H](O)[C@@H]1O [Methyl-α D-mannopyranoside] | − | − |  |  | 
23 | O=C([O-])C(=O)C(O)C(O)C(O)CO.[K+] (centres unmarked) [Potassium 2-Ketogluconate] | − | − |  |  | 
24 | OCc1ccccc1O[C@@H]1O[C@H](CO)[C@@H](O)[C@H](O)[C@H]1O [Salicine] | − | − |  |  | 
25 | CO[C@H]1OC[C@@H](O)[C@H](O)[C@H]1O [α-Methyl-xyloside] | − | − |  |  | 
26 | Amidon [Amidon (starch)] | − | − |  |  | 
27 | D-Turanose | − | − |  |  | 
28 | Glycogene | − | − |  |  | 
29 | Piperacillin-Tazobactam [PTZ] |  |  |  |  | 8/4

Reference: US11439670B2, “Akkermansia muciniphila EB-AMDK27 strain and use thereof” (ENTEROBIOME INC., priority 2019, dated 2022)
